Experimental data published in publication PMC12333940, “A prometabolite strategy inhibits cardiometabolic disease in an ApoE^–/– murine model of atherosclerosis” (JCI Insight, 2025).
Where “and” joins values, the source holds several entries; their conditions need not be identical. Identical values can stand only once.

Experiments:
RAW 264.7 macrophages [1] = assay: Flow cytometry of iNOS, CD80, CD86 in LPS-stimulated RAW 264.7; format: cell-based; conditions: for CD80 MFI / iNOS MFI: then LPS 6 h; for CD80+ % Live / CD86+ % Live / iNOS+ %Live: listed as NB
Procedure: RAW 264.7 (ATCC, TIB-71) macrophages were cultured at 37°C and 5% CO2 in DMEM (Gibco) supplemented with 1 mM HEPES, 1 mM sodium pyruvate, 10% FBS, and penicillin/streptomycin. Cells were plated in round-bottom 96-well plates at 100,000 cells per well and incubated with different concentrations of either NaBut or SerBut (0.15–12 mM) for 24 hours. […] The cell culture supernatant was collected and analyzed by LEGENDPlex to analyze the concentrations of cytokines (BioLegend). Cell phenotype was analyzed using flow cytometry (Cytek Aurora).
Flow cytometry was performed using a BD LSRFortessa or a Cytek Aurora full-spectrum cytometer. Data were analyzed using FlowJo version 10.8.0. eFluor 780 Viability Dye (Invitrogen, 65-0865-14) and antibodies against the following markers were used in the RAW 264.7 macrophage in vitro studies: CD86 (BV421; BD Horizon, catalog 564198), CD80 (BC650; BioLegend, clone 16-10A1, catalog 104732), and iNOS (APC; Invitrogen, clone CXNFT, catalog 17-5920-9). Live/Dead Blue (Invitrogen, 123105A) and antibodies against the following markers were used in the atherosclerosis mouse models: F4/80 (FITC; BioLegend, clone BM8, catalog 123108), CD3e (BV605; BD Biosciences, clone 145-2C11, catalog 563565), CD4 (BUV496; BD Biosciences, clone GK 1.5, catalog 612952), RORγt (AF647; BD Biosciences, clone Q31-378, catalog 562682), FoxP3 (AF488, BD Biosciences, clone MF23, catalog 560403), CCR2 (PE; R&D Systems, catalog FAB5538P), Ly6C (APC-Cy7; BioLegend, catalog 128026, clone HK1.4), Ly6G (AF488; BioLegend, catalog 127626), CD8 (APC-Cy7; BioLegend, clone 53-6.7, catalog 100714), CD45 (BUV805; Invitrogen, clone 30-F11, catalog 368-0451-82), and CD25 (PerCP-Cy5.5; BioLegend, clone PC61, catalog 102030).

ApoE^–/– mice on an HFD = assay: Flow cytometry of blood, lymph nodes and spleen; format: in vivo, mouse; parameters: Treg / Th17 / F480+CD11b+ Macrophages / iNOS+ Macs / Arg1+ Macs: unit not given here
Procedure: SerBut water was pH adjusted using 10 M NaOH to a final pH of 7.4. […] After 6 weeks, mice were euthanized. The lMLNs, ILNs, spleen, heart, and aorta were harvested and processed for flow cytometry analysis ([67]). […] The remaining liver was fixed with 4% paraformaldehyde and embedded in paraffin for histological analysis.
Flow cytometry was performed using a BD LSRFortessa or a Cytek Aurora full-spectrum cytometer.

RAW 264.7 macrophages [2] = assay: LEGENDPlex cytokines in supernatant of LPS-stimulated RAW 264.7; format: cell-based; parameters: TNFa (Legendplex) / MCP-1 (Legendplex) / IL-10 (Legendplex) / IL-6 (Legendplex): unit not given here
Procedure: RAW 264.7 (ATCC, TIB-71) macrophages were cultured at 37°C and 5% CO2 in DMEM (Gibco) supplemented with 1 mM HEPES, 1 mM sodium pyruvate, 10% FBS, and penicillin/streptomycin. Cells were plated in round-bottom 96-well plates at 100,000 cells per well and incubated with different concentrations of either NaBut or SerBut (0.15–12 mM) for 24 hours. Cells were then rinsed with PBS and then stimulated with 200 ng/mL LPS in media for 6 hours. The cell culture supernatant was collected and analyzed by LEGENDPlex to analyze the concentrations of cytokines (BioLegend). Cell phenotype was analyzed using flow cytometry (Cytek Aurora).

[3] = Biodistribution of free butyrate in intestinal tissue and contents, C57BL/6 mice; format: in vivo; conditions: C57BL/6, normal chow; 3 hr after single gavage
Excerpt: NaBut is limited in its translation by butyrate’s rapid consumption by colonocytes as a primary energy source in the distal gut. We propose that the enhanced biodistribution of free, active butyrate (following cleavage from serine) in SerBut-treated mice is due to small intestinal escape from the gut via amino acid transporters. To probe this hypothesis, we repeated the experiment and analyzed the biodistribution of free active butyrate in distinct sections of the intestinal tissue and the intestinal contents (Figure 2, K and L, and Supplemental Figure 2). Because neither ApoE^–/– nor HFD feeding would be expected to change amino acid receptor expression or function in the intestine, this was performed in C57BL/6 mice on a normal diet. […] We saw no increase in butyrate in the colon tissue (Figure 2P).
Samples were prepared and derivatized as described previously ([28]). […] The internal standard, 4-methylvaleric acid, was added.
Injection volume: 5.0 μL. Flow rate: 0.5 mL/min.

[4] = 0.45 mM, 12 Hour LPS stim after Butyrate treament
[5] = 0.45 mM, 12 hour LPS stim before butyrate treatment
[6] = 1.3 mM, 12 Hour LPS stim after Butyrate treament
[7] = 1.3 mM, 12 hour LPS stim before butyrate treatment
[8] = Inguinal Lymph Node Flow, individual mice
[9] = Mesenteric Lymph Node Flow, individual mice

CCCC(=O)[O-].[Na+] [NaBut, sodium butyrate, reference compound]
CD80 MFI (RAW 264.7 macrophages [1]; 0.15 mM 24 h): 22618 and 22070 and 22276
iNOS MFI (RAW 264.7 macrophages [1]; 0.15 mM 24 h): 132178 and 120454 and 127565
CD80 MFI (RAW 264.7 macrophages [1]; 0.45 mM 24 h): 22987 and 22543 and 22840
iNOS MFI (RAW 264.7 macrophages [1]; 0.45 mM 24 h): 139940 and 135604 and 131383
CD80+ % Live (RAW 264.7 macrophages [1]; [4]): 31.4% and 45.9% and 36.7%
CD86+ % Live (RAW 264.7 macrophages [1]; [4]): 10.9% and 12.8% and 11.6%
iNOS+ %Live (RAW 264.7 macrophages [1]; [4]): 72.8% and 94.5% and 85.8%
CD80+ % Live (RAW 264.7 macrophages [1]; [5]): 55.4% and 59.7% and 52.7%
CD86+ % Live (RAW 264.7 macrophages [1]; [5]): 16.4% and 16% and 15.5%
iNOS+ %Live (RAW 264.7 macrophages [1]; [5]): 39.7% and 50% and 39.3%
CD80 MFI (RAW 264.7 macrophages [1]; 1.3 mM 24 h): 22932 and 22915 and 22360
iNOS MFI (RAW 264.7 macrophages [1]; 1.3 mM 24 h): 123416 and 155157 and 124806
CD80+ % Live (RAW 264.7 macrophages [1]; [6]): 40.8% and 54.3% and 32.8%
CD86+ % Live (RAW 264.7 macrophages [1]; [6]): 22.7% and 26% and 18.7%
iNOS+ %Live (RAW 264.7 macrophages [1]; [6]): 66.2% and 87.1% and 52%
CD80+ % Live (RAW 264.7 macrophages [1]; [7]): 47.8% and 46.8% and 51.4%
CD86+ % Live (RAW 264.7 macrophages [1]; [7]): 16.7% and 17.4% and 18.3%
iNOS+ %Live (RAW 264.7 macrophages [1]; [7]): 31.6% and 29.4% and 31.8%
Arg1+ Macs (ApoE^–/– mice on an HFD; [8]): 1.5 and 2.34 and 2.81 and 2.38
F480+CD11b+ Macrophages (ApoE^–/– mice on an HFD; [8]): 0.62 and 0.34 and 0.21 and 0.27
Th17 (ApoE^–/– mice on an HFD; [8]): 4.92 and 5.5 and 5.4 and 13 and 8.24 and 3.69 and 4.14 and 8.43 and 4.57 and 3.89
Th17/Treg (ApoE^–/– mice on an HFD; [8]): 0.4278 and 0.4365 and 0.4463 and 1.161 and 0.7423 and 0.2976 and 0.345 and 0.4153 and 0.3288 and 0.2701
Treg (ApoE^–/– mice on an HFD; [8]): 11.5 and 12.6 and 12.1 and 11.2 and 11.1 and 12.4 and 12 and 20.3 and 13.9 and 14.4
iNOS+ Macs (ApoE^–/– mice on an HFD; [8]): 2.2 and 5.7 and 2.33 and 5.26
Arg1+ Macs (ApoE^–/– mice on an HFD; [9]): 1.44 and 1.98 and 1.72 and 1.71
F480+CD11b+ Macrophages (ApoE^–/– mice on an HFD; [9]): 11.6 and 5.7 and 6.38 and 10.4
Th17 (ApoE^–/– mice on an HFD; [9]): 11.7 and 14.4 and 12.2 and 12.1 and 11.3 and 18.4 and 15.3
Th17/Treg (ApoE^–/– mice on an HFD; [9]): 1.054 and 1.385 and 0.8652 and 1.008 and 0.8968 and 1.108 and 0.8895
Treg (ApoE^–/– mice on an HFD; [9]): 11.1 and 10.4 and 14.1 and 12 and 12.6 and 16.6 and 17.2
iNOS+ Macs (ApoE^–/– mice on an HFD; [9]): 2.42 and 0.43 and 0.69 and 0.94
Th17 (ApoE^–/– mice on an HFD; Spleen Flow, individual mice): 1.11 and 0.85 and 1.17 and 1.19 and 1.09 and 1.43 and 1.41 and 1.08 and 1.22 and 0.97
Th17/Treg (ApoE^–/– mice on an HFD; Spleen Flow, individual mice): 0.1535 and 0.1111 and 0.1425 and 0.1357 and 0.131 and 0.1783 and 0.1653 and 0.135 and 0.1432 and 0.1325
Treg (ApoE^–/– mice on an HFD; Spleen Flow, individual mice): 7.23 and 7.65 and 8.21 and 8.77 and 8.32 and 8.02 and 8.53 and 8 and 8.52 and 7.32
Blood Neutrophils: CD11b+Ly6G+ %CD45 (ApoE^–/– mice on an HFD; blood, individual mice): 7.65 %CD45 and 9.07 %CD45 and 17.4 %CD45 and 8.36 %CD45 and 14.3 %CD45 and 19.3 %CD45 and 20.8 %CD45 and 17.3 %CD45 and 19.5 %CD45 and 14.8 %CD45 and 22.8 %CD45 and 4.26 %CD45 and 16.8 %CD45
Th17/Treg cell ratio (ApoE^–/– mice on an HFD; spleen): lower Th17/Treg cell ratio
IL-10 (Legendplex) (RAW 264.7 macrophages [2]; 0.15 mM 24 h, then LPS 6 h): 8.317 and 9.29 and 13.129 and 8.37
MCP-1 (Legendplex) (RAW 264.7 macrophages [2]; 0.15 mM 24 h, then LPS 6 h): 1660.24 and 2264.24 and 1687.05 and 2929.5 and 2357.33 and 2465.59
TNFa (Legendplex) (RAW 264.7 macrophages [2]; 0.15 mM 24 h, then LPS 6 h): 3467.9 and 2909.16 and 2378.78 and 3607.94 and 2472.11 and 3683.23
MCP-1 (Legendplex) (RAW 264.7 macrophages [2]; 0.45 mM 24 h, then LPS 6 h): 2112.3 and 1670.81 and 2406.34 and 3206.1 and 2298.22 and 2148.28
TNFa (Legendplex) (RAW 264.7 macrophages [2]; 0.45 mM 24 h, then LPS 6 h): 3244.2 and 3100.16 and 2160.11 and 2490.85 and 3404.75 and 4226.6
IL-6 (Legendplex) (RAW 264.7 macrophages [2]; 1.3 mM 24 h, then LPS 6 h): 176.681 and 160.514 and 142.105 and 263.619 and 136.873 and 198.799
IL-10 (Legendplex) (RAW 264.7 macrophages [2]; 1.3 mM 24 h, then LPS 6 h): 98.389 and 140.989 and 108.157 and 179.138 and 132.561 and 143.069
MCP-1 (Legendplex) (RAW 264.7 macrophages [2]; 1.3 mM 24 h, then LPS 6 h): 906.304 and 776.372 and 770.115 and 1009 and 667.135 and 799.178
TNFa (Legendplex) (RAW 264.7 macrophages [2]; 1.3 mM 24 h, then LPS 6 h): 1902.56 and 1870.65 and 1906.93 and 1713.88 and 1376.2 and 1809.49
IL-10 (RAW 264.7 macrophages [2]; compared with LPS-stimulated controls): significantly increased
free butyrate, Colon Contents [3]: 384.57 µg/g
free butyrate, Lower SI Contents [3]: 41.6523 µg/g and 45.1024 µg/g and 60.4329 µg/g and 68.0864 µg/g
